Measured values taken from article PMC2990756, “Quantitative High-Throughput Screening Identifies 8-Hydroxyquinolines as Cell-Active Histone Demethylase Inhibitors” (PLoS ONE, 2010).
pIC50: −log10 of the molar value. Where two headings read alike, the source gives them in different places.

Experiments:
JMJD2E (KDM4E) = molecular target: T1, JMJD2E (KDM4E) (Homo sapiens, UniProt B2RXH2); assay: qHTS fluorescence FDH-coupled JMJD2E demethylase assay; type: biochemical; conditions: for pIC50: Table S1, unit not in table, from Figure 2, read-out: qHTS Data: jmjd2e IC50
T1 construct: The catalytic domain of human JMJD2E (residues 1–337); His6 (N); made in house; host or cells: E. coli
T1 sequence (B2RXH2 1-337): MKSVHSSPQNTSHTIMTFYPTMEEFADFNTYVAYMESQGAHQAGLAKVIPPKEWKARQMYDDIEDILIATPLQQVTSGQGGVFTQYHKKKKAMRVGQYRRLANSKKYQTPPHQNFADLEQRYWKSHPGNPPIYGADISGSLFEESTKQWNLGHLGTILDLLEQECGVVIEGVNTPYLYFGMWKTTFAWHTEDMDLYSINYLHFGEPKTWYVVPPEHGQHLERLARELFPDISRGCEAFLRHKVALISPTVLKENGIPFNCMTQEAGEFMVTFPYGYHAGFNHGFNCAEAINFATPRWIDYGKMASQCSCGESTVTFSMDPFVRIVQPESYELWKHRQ

JMJD2E [1] = molecular target: T2, JMJD2E (Homo sapiens, UniProt B2RXH2); assay: MALDI-TOF MS demethylation assay, JMJD2E; conditions: Table S1; for MALDI-TOF Data: Span: span of the fitted curve; for MALDI-TOF Data: Span / pIC50: 2 µM JMJD2E; for pIC50: read-out: MALDI-TOF Data: IC50, unit not in table, ~ values are poorly fitted
T2 sequence (B2RXH2 1-337): T1 sequence (B2RXH2 1-337)
Method: Initially, JMJD2, Fe(II), ascorbate and inhibitors were pre-incubated for 15 min prior to the addition of peptide and 2OG. The reaction was incubated for 30 min before 1∶1 quenching with methanol followed by addition of four volumes of 20 mM triammonium citrate. […] The diluted assay mixture (1 µL) from JMJD2 and PHD2 assays were mixed with 1 µL of α-cyano-4-hydroxycinnamic acid and 1 µL of FIH assay mixture was mixed with 1 µL of sinapinic acid matrix, and assessed by matrix-assisted laser desorption/ionization-time of flight (MALDI-TOF).

JMJD2E [2] = molecular target: T2, JMJD2E; assay: JMJD2E FDH-coupled assay under low and high iron conditions (iron chelation profile); type: biochemical; set-up: The catalytic domain of human JMJD2E (residues 1–337); His6 (N); made in house; host or cells: E. coli; conditions: Table S1; for pIC50: unit not in table, from Figure 2
Method: The prioritized compounds were also evaluated in the screening assay using two different ferrous ion concentrations (termed high iron and low iron, respectively), in order to assess their propensity for iron chelation.
The ratio of IC50 values under high iron to low iron was calculated for each compound.

[3] = molecular target: T3, formaldehyde dehydrogenase (FDH) (Pseudomonas putida, UniProt P46154); assay: FDH coupling enzyme counterscreen; type: biochemical; conditions: Table S1, FDH counterscreen; for pIC50: unit not in table, from Figure 2, read-out: qHTS Data: jmjd2e fdh IC50
T3 construct: purchased Sigma-Aldrich
T3 sequence (P46154 whole entry): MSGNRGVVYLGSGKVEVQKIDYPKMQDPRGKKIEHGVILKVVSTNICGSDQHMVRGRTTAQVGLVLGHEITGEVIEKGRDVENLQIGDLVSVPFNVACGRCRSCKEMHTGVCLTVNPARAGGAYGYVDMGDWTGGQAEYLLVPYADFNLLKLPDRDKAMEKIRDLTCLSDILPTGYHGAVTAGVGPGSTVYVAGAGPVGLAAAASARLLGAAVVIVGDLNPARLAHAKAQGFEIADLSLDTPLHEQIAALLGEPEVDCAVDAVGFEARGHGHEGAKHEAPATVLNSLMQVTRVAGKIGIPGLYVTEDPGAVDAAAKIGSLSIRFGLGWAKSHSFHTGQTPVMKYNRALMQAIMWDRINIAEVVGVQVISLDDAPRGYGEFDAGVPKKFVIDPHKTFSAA
From the text: Dimethylsulfoxide certified ACS grade (DMSO) was from Fisher, Inc. HEPES buffer was obtained from Gibco. […] Black solid-bottom 1,536-well assay plates were from Greiner Bio-One (Monroe, NC).

[4] = high iron, head says 20 µM FAS, read-out: qHTS Data: jmjd2e fas20um IC50
[5] = low iron 2.5 µM FAS, read-out: qHTS Data: jmjd2e fas2.5um IC50

SMILES	pIC50 (JMJD2E (KDM4E))	MALDI-TOF Data: Comments (JMJD2E [1])	pIC50 (JMJD2E [2]; [4])	pIC50 (JMJD2E [2]; [5])	qHTS Data: jmjd2e fdh CurveClass [3]	MALDI-TOF Data: Span (JMJD2E [1])	pIC50 (JMJD2E [1])	pIC50 [3]	qHTS Data: jmjd2e fas20um CurveClass (JMJD2E [2]; high iron)	IC50 (JMJD2E (KDM4E); Figure 3, substituted 8-hydroxyquinolines against JMJD2E, read-out: IC50 /μM (qHTS IC50, FDH-coupled assay)) [µM]	qHTS Data: jmjd2e fas2.5um Curve comment (JMJD2E [2]; low iron 2.5 µM FAS)
C(=N\Nc1nc(-c2ccccn2)nc2ccccc12)/c1ccccc1 [compound 26666061]	5.05	solubility problems	5.00	4.65	Inactive						
COc1cccc(/C=N/NC(=O)CNC(=O)CCc2ccccc2)c1O [compound 26660959]	5.40		4.90	5.15	Inconclusive	88.08	5.07	4.40			
C[C@@](Cc1ccc(O)c(O)c1)(NN)C(=O)O [compound 11113507]	5.45		4.85	5.45	Inactive	95.69	5.25				
NC(Cc1cc(O)c(O)cc1O)C(=O)O (centres unmarked) [compound 50106437]	4.90	solubility problems	5.65	5.10	Inactive						
CN(C)C1C(=O)C(C(N)=O)=C(O)[C@@]2(O)C(=O)C3=C(O)c4c(O)cccc4[C@@](C)(O)C3[C@H](O)C12 (some centres unmarked) [compound 50105558]	5.70		5.05	4.85	Poor quality curve	94.16	4.26	5.45			
O=C(OCC1O[C@@H](OC(=O)c2cc(O)c(O)c(O)c2)[C@@H](OC(=O)c2cc(O)c(O)c(O)c2)[C@@H](OC(=O)c2cc(O)c(O)c(O)c2)[C@@H]1OC(=O)c1cc(O)c(O)c(O)c1)c1cc(O)c(O)c(O)c1 (some centres unmarked) [compound 22405492]	5.50		4.85	5.95	Inactive						
Cl.NCCc1cc(O)c(O)cc1O [compound 26748180]	5.20		5.10	5.60	Poor quality curve						
COc1ccc(N2C(=O)CC(Sc3ncn[nH]3)C2=O)c(OC)c1 (centres unmarked) [compound 7974422]	5.55		4.45	5.85				6.49	Poor quality curve		
O=C(O)c1cc(O)c(O)c(O)c1 [compound 26747307]	6.46		4.75	6.89	Poor quality curve			4.50			
CCOc1cccc(C(=O)c2ccc(O)c(O)c2O)c1 [compound 26749554]	5.00		5.05	5.35	Inactive						
O=c1cc2c(=O)oc3cc(O)c(O)oc3c2c(O)c1O [compound 26666750]	5.40		4.80	5.75	Inactive						
CC1=CC(=O)c2c(O)cccc2C1=O [compound 26747815]	5.05		4.90	5.65	Poor quality curve			4.75			
CCOC(=O)C1CCN(Cc2ccc(O)c3ncccc23)CC1 [compound 850072]	5.05		5.70	5.35	Inconclusive						
CCOC(=O)c1ccc(CC(=O)c2ccc(O)c(O)c2O)o1 [compound 24797852]	5.50		5.00	5.85	Inactive						
O=C(CSc1ncn[nH]1)c1cccc([N+](=O)[O-])c1 [compound 17510781]	5.10		4.85	5.00				6.05			
Cc1cc(C(=O)NNC(=S)Nc2ccccc2)nn1C [compound 24796479]	5.05		5.10	5.15	Inactive						
CC1(C)CCC2=C(O1)c1ccccc1C(=O)C2=O [compound 50106535]	5.45					91.75	4.54				
Oc1ccccc1O [compound 50105556]	4.85		4.85	5.00	Inactive				Poor quality curve		
COC(=O)c1ccc(=O)c2nc3/c(=C/O)c(O)cc(=O)c3[nH]c12 [compound 26732584]	5.05			5.65	Inactive				Inconclusive		

SMILES	pIC50 (JMJD2E (KDM4E))	MALDI-TOF Data: Comments (JMJD2E [1])	pIC50 (JMJD2E [2]; [4])	pIC50 (JMJD2E [2]; [5])	qHTS Data: jmjd2e fdh CurveClass [3]	MALDI-TOF Data: Span (JMJD2E [1])	pIC50 (JMJD2E [1])	pIC50 [3]	qHTS Data: jmjd2e fas20um CurveClass (JMJD2E [2]; high iron)	IC50 (JMJD2E (KDM4E); Figure 3, substituted 8-hydroxyquinolines against JMJD2E, read-out: IC50 /μM (qHTS IC50, FDH-coupled assay)) [µM]	qHTS Data: jmjd2e fas2.5um Curve comment (JMJD2E [2]; low iron 2.5 µM FAS)
COC(=O)c1cc(=O)c(O)c2c(O)c(O)ccc2c1 [compound 26749939]	5.05		4.65	5.10	Inactive						
O=C(O)c1cccc(C(=O)O)n1 [compound 863941]	5.05		5.10	5.55	Inactive						
CCOC(=O)Cc1csc(-n2sc3ccccc3c2=O)n1 [compound 3716597]	5.00			5.15	Inactive				Inactive		
Oc1ccc(CNc2ccccc2)c2cccnc12 [compound 842629]	5.05		4.85	5.90	Inactive					8.9	
COc1ccc(Cn2c(O)c(/C=N/NC(=O)c3ccncc3)c(=O)[nH]c2=O)cc1 [compound 26667135]	5.10		5.05	5.05	Poor quality curve			4.85			
O=C1C=C(O)c2cccc(O)c2C1=O [compound 26724134]	5.10		4.70	4.85	Inactive						Poor quality curve
CC(C)c1ccccc1NC(=O)CNCCc1ccc(C(F)(F)F)cc1.O=C(O)C(=O)O [compound 26661422]	5.50			4.55	Inactive				Inactive		
Cc1cc2c(C(C)C)c(O)c(O)c(C=O)c2c(O)c1-c1c(C)cc2c(C(C)C)c(O)c(O)c(C=O)c2c1O [compound 11112318]	5.10		4.80	5.95				4.50			
COc1cccc(O)c1O [compound 26749778]	5.10		4.80	5.35	Inactive						
O=C(CC1Sc2ncnn2C1=O)Nc1ccc(Cl)cc1 (centres unmarked) [compound 24795544]	5.80		5.10	5.70				6.60			
CN(C)c1ccnc(C(=O)O)c1 [compound 24815512]	5.55		4.80		Inactive				Poor quality curve		Inactive
CCc1ccc2c(O)c3c(cc2c1C(=O)OC)C(=O)c1c(O)ccc(O)c1C3=O [compound 26749155]	5.55		4.95	5.40	Poor quality curve			5.50			
CC(C)C1C(=O)C(C(N)=O)=C(O)[C@@]2(O)C(=O)C3=C(O)c4c(O)ccc(N(C)C)c4C[C@H]3C[C@@H]12.Cl (some centres unmarked) [compound 50106632]	5.00		4.90	4.90	Inactive				Poor quality curve		
O=c1c(O)c(-c2cc(O)c(O)c(O)c2)oc2cc(O)cc(O)c12 [compound 11111488]					Inactive	95.03			Poor quality curve		
Oc1ccc(CN2CCCc3ccccc32)c2cccnc12 [compound 4249321]	5.05			5.90	Inactive				Inactive		
NC(=O)c1ccc(-n2nnnc2SCC(=O)c2ccc(O)c(O)c2)cc1 [compound 24821381]	6.15			5.10	Inactive				Inactive		
Oc1c(C(Nc2nccs2)c2ccc(C(F)(F)F)cc2)ccc2cccnc12 (centres unmarked) [compound 24832893]	5.45		4.90	4.55	Inactive						
O=C(NC(=S)NNC(=O)c1ccccc1O)c1ccco1 [compound 17504924]	5.15			5.45	Poor quality curve			5.55	Inactive		
